Assay results reported in the supplement of paper PMC10949913.

Legend:
[1] = system: CU-ACC1; test: area under concentration-response curve (viability) (AUC (a.u.)); higher = less active; conditions: 48 h
Summary of the method: (§1)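 Concentration-response curves were fitted to obtain AC50 and area under the curve, keeping inhibitory or non-responding curve classes only. Data came from CellTiter-Glo luminescence, normalised per plate to vehicle and empty-well controls, in three adrenocortical carcinoma cell lines. These were treated in 1,536-well plates with library compounds at 11 concentrations and read after 48 h.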

[2] = system: CU-ACC2; test: as above; conditions: 48 h
Summary of the method: as §1

Row | Structure (SMILES) | area under concentration-response curve [1] | area under concentration-response curve [2]
1 | CC[C@@]1([C@@H]2O[C@@H]([C@H]3O[C@@](O)(CO)[C@H](C)C[C@@H]3C)C[C@@H]2C)CC[C@H]([C@]2(C)CC[C@]3(C[C@H](O)[C@@H](C)[C@@H]([C@@H](C)[C@@H](OC)[C@H](C)C(=O)[O-])O3)O2)O1 | 427 | 410
2 | O=C(c1ccccc1)c1ccc2n1CCC2C(=O)O (stereo not drawn) | 448 | 529
3 | COc1ccnc(C[S+]([O-])c2nc3cc(OC(F)F)ccc3[nH]2)c1OC (stereo not drawn) | 554 | 585
4 | CC(=O)Nc1ccc(OC[C@](C)(O)C(=O)Nc2ccc([N+](=O)[O-])c(C(F)(F)F)c2)cc1 | 519 | 515
5 | CCCCCCCCCCCCCC(=O)N[C@H](CO)[C@H](O)c1ccc([N+](=O)[O-])cc1 | 502 | 598
6 | CN(C)CCN(C)CCc1ccc(Cl)c(Cl)c1 | 574 | 581
7 | Nc1nnc(-c2cccc(Cl)c2Cl)c(N)n1 | 563 | 630
8 | CSC[C@H]1CN(Cc2c[nH]c3c(N)ncnc23)C[C@@H]1O | 364 | 417
9 | CO[C@@H]1COCC[C@@H]1N[C@@H]1CC[C@@](C(=O)N2CCc3ncc(C(F)(F)F)cc3C2)(C(C)C)C1 | 591 | 640
10 | CC(C)c1ccc2c(c1)c(SC(C)(C)C)c(CC(C)(C)C(=O)[O-])n2Cc1ccc(Cl)cc1 | 457 | 572
11 | CC[C@H](C)C(=O)O[C@H]1C[C@H](O)\C=C2\C=C/[C@H](C)[C@H](CC[C@@H](O)C[C@@H](O)CC(O)=O)[C@@H]12 | 544 | 576
12 | CCN1CCCC1CNC(=O)c1cc([S+](=O)([O-])CC)c(N)cc1OC (stereo not drawn) | 561 | 591
13 | CCCCCCCCCCCC/1=C(O)/C(=O)/C=C(O)\C1=O | 534 | 593
14 | CC(C)NCCCn1c(Sc2cc(Cl)cc(Cl)c2)nc2c(N)ncnc21 | 511 | 572
15 | N=C1N[C@H]2[C@H](CS[C@H]2CCCCC(=O)O)N1 | 217 | 256
16 | CCc1nc(-c2cccc(C)c2)c(-c2ccnc(NC(=O)c3ccccc3)c2)s1 | 490 | 574
17 | CC1(CN2CCC(n3c(=O)[nH]c4ccccc43)CC2)OCc2ccccc2-n2cccc21 (stereo not drawn) | 494 | 556
18 | COc1ncnc(N[S+](=O)([O-])c2ccc(N)cc2)c1OC | 593 | 604
19 | O=C(C1CC1)N1CC[C@@H](Cn2c(-c3ccc(-c4ccc5occc5c4)cc3)nc3cnccc32)C1 | 505 | 486
20 | C[C@H]1[C@H](O)[C@@H](C)/C=C/C=C/CC/C=C/C=C/C=C/C=C/[C@H](O[C@@H]2O[C@H](C)[C@@H](O)[C@H](N)[C@@H]2O)C[C@@H]2O[C@](O)(C[C@@H](O)[C@H](O)CC[C@@H](O)C[C@@H](O)C[C@@H](O)CC(=O)O[C@H]1C)C[C@H](O)[C@H]2C(=O)O | 375 | 426

Row | Structure (SMILES) | area under concentration-response curve [1] | area under concentration-response curve [2]
21 | C[C@H](Nc1nc(N[C@H](C)C(F)(F)F)nc(-c2cccc(Cl)n2)n1)C(F)(F)F | 547 | 606
22 | Cc1[nH]c(=O)c(C#N)cc1-c1ccc2nccn2c1.Cl | 587 | 624
23 | O=C(Nc1ccc(OC(F)(F)F)cc1)c1sccc1NCc1ccnc2ccccc12 | 525 | 639
24 | CC(C)(c1ccc(OCC(O)CO)cc1)c1ccc(OCC(O)CCl)cc1 (stereo not drawn) | 384 | 301
25 | CC(C)c1ccc2oc3nc(N)c(C(=O)O)cc3c(=O)c2c1 | 543 | 606
26 | CC1=C(/C=C/C(C)=C/C=C/C(C)=C\C(=O)O)C(C)(C)CCC1 | 491 | 586
27 | COC1=CC2=C(OC\C(=C2\C3=CC=C(F)C=C3)CN4CCCC4)C=C1 | 500 | 560
28 | NC\1=N\C(=O)N(\C=C1)[C@@H]2O[C@H](CO)[C@@H](O)[C@H]2O | 582 | 610
29 | CCCCc1ccc(N[S+](=O)([O-])c2ccc(C)c(C(=O)N3CCN(c4cccc(C)c4C)CC3)c2)cc1 | 527 | 634
30 | NC/1=N/C(=O)N(/C=C1)[C@@H]2O[C@H](CO)[C@@H](O)C2(F)F | 497 | 541
31 | COc1cc(/C=C(\C#N)C(=O)Nc2nnc(C(F)(F)F)s2)ccc1OCc1ccc(C(F)(F)F)cc1C(F)(F)F | 450 | 488
32 | CNC(=O)c1ccccc1Nc1nc(Nc2ccc3c(c2OC)CCC[C@@H](N2CCN(CCO)CC2)C3)ncc1Cl | 548 | 644
33 | CNNCc1ccc(C(=O)NC(C)C)cc1 | 517 | 526
34 | COc1ccc2c(c1)c(CC(=O)O)c(C)n2C(=O)c1ccc(Cl)cc1 | 495 | 566
35 | CC(C)(C)c1cc(C=C(C#N)C#N)cc(Br)c1O | 552 | 583
36 | CC(C)Cc1ccc(C(C)C(=O)O)cc1 (stereo not drawn) | 539 | 583
37 | O=P(O)(O)C(O)(Cn1ccnc1)P(=O)(O)O | 628 | 679
38 | CCOCc1nc2c(N)nc3ccccc3c2n1CC(C)(C)O | 510 | 562
39 | CN1CCc2c(c3ccccc3n2Cc2ccc(C(=O)NO)cc2)C1 | 553 | 595
40 | C=CC(=O)N1C[C@H](Nc2ncnc3[nH]ccc23)CC[C@@H]1C | 587 | 622

Row | Structure (SMILES) | area under concentration-response curve [1] | area under concentration-response curve [2]
41 | CCCCOc1nc(N)c2c(n1)N(Cc1cccc(CN3CCCC3)c1)CC(=O)N2 | 538 | 506
42 | CC(C)(C)NC(=O)[C@H]1CC[C@H]2[C@@H]3CC[C@H]4NC(=O)\C=C/[C@]4(C)[C@H]3CC[C@]12C | 618 | 622
43 | C=CC(=O)N[C@H]1CN(c2nc(Nc3cn(C)nc3OC)c3ncn(C)c3n2)C[C@@H]1F | 401 | 422
44 | COc1ccccc1C(=O)Nc1cc2c(cc1N1CCCC1)n(C)c(=O)n2C | 537 | 602
45 | C[C@H]1CN(C[C@@H](C)O1)CC(=O)NC2=CC=C3SC4=C(CC3=C2)C=CC=C4\C5=C\C(=O)\C=C(/O5)N6CCOCC6 | 439 | 428
46 | CCO[C@@H]1OC(=O)C[C@@H]1NC(=O)[C@@H]1CCCN1C(=O)[C@@H](NC(=O)c1ccc(N)c(Cl)c1)C(C)(C)C | 493 | 518
47 | Cn1cc(-c2ccncc2)c(-c2ccc(OCc3ccc4ccccc4n3)cc2)n1 | 495 | 597
48 | CN1C(=O)[C@@H](NC(=O)c2cc(Cc3ccccc3)on2)COc2ccccc21 | 361 | 325
49 | N#Cc1ccc(NC(=O)Nc2ccccc2Br)c2nn[nH]c12 | 573 | 638
50 | Nc1ncnc2c1nc(Cl)n2[C@@H]1O[C@H](CO)[C@@H](O)[C@H]1O | 471 | 542
51 | C[C@]12CC[C@H]3[C@@H](CC[C@@]45O[C@@H]4\C(=C(/C[C@]35C)C#N)O)[C@@H]1CC[C@@H]2O | 571 | 590
52 | CCC[S+]([O-])c1ccc2[nH]c(NC(=O)OC)nc2c1 (stereo not drawn) | 502 | 595
53 | CN(CCOc1ccc(-c2ccc3c(c2)OCO3)cc1C(C)(C)C)CC(=O)O | 498 | 486
54 | CCc1ccc(N(CC(C)C)[S+](=O)([O-])c2ccc(OCC3CCOCC3)c(CO)c2)cc1 | 466 | 586
55 | NC(=O)c1ccc(I)c([N+](=O)[O-])c1 | 549 | 583
56 | CC(C)(C)C1=NC2=C([NH]1)C3=CC=C(F)C=C3C4=C2\C=C/NC4=O | 494 | 500
57 | CC(C)(O)CCc1ccc(OCc2cc(-c3cccc(OC(F)F)c3)c3ncccc3c2)cc1 | 543 | 586
58 | NC1CCCN(c2c(/C=C3\SC(=O)NC3=O)cccc2-c2ccccc2)C1 (stereo not drawn) | 563 | 648
59 | CCOC(=N)c1nc2ccc3ncnc(Nc4cc(F)c(F)cc4Cl)c3c2s1 | 424 | 653
